Data reported in US20260306460A1, “COMPOSITION FOR REMOVING AND INHIBITING SENESCENT CELLS, AND USES THEREOF” (LIFECEUTIX CO., LTD., priority 2023, published 2026).

Columns and labels:
[1] = test system: doxorubicin-induced aged C57BL6J mice; experiment: Kidney damage (urea, creatinine, Agtr1a mRNA) in doxorubicin-aged mice, Example 22-9, Table 38; format: in vivo, mouse; details: amount after aging calculated as 100%; for Creatinine / Urea: serum
Experimental: Eight-week-old male C57BL6J mice (KRIBB Laboratory Animal Resource Center) were acclimated to the experimental environment for one week. Afterwards, the anticancer agent doxorubicin was administered intraperitoneally at a concentration of 10 mg/kg, inducing aging for more than 10 days. The aging-induced mice were randomly assigned to experimental and control groups. LX-403 was mixed with a 10% ethanol solution of PEG400 and administered orally at a concentration of 25 mg/kg or intradermally at a concentration of 1 μM for 21 days. LX-1801 was mixed in distilled water with 4% DMSO, 30% PEG300, and 5% Tween80 and administered intradermally at a concentration of 0.4 μM daily for 21 days. LX-2001 was mixed in PBS and administered intradermally at a concentration of 2 μM daily for 21 days. LX-2002 was mixed in distilled water with 4% DMSO, 30% PEG300, and 5% Tween80 and administered intradermally at a concentration of 2 μM daily for 21 days. […] LX-2005 was mixed in distilled water with 4% DMSO, 30% PEG300, and 5% Tween80 and administered intradermally at a concentration of 90 μM daily for 21 days. LX-2007 was mixed in distilled water with 4% DMSO, 30% PEG300, and 5% Tween80 and administered intradermally at a concentration of 90 μM daily for 21 days. […] LX-3002 was mixed in distilled water with 4% DMSO, 30% PEG300, and 5% Tween80 and administered orally at a concentration of 10 mg/kg daily for 21 days. […] LX-5411 was mixed in 5% phosphate-buffered saline (PBS) and administered orally at a concentration of 10 mg/kg daily for 21 days or intradermally at a concentration of 3 μM. LX-5701 was mixed in PBS and administered orally at a concentration of 360 mg/kg daily for 21 days. LX-6807 was mixed in saline and administered intraperitoneally at a concentration of 1 mg/kg daily for 21 days. The control group received only the solution in the same volume. After the end of drug administration, the methods described in each example below were performed.
The amounts of urea and creatinine, markers of kidney damage, were measured spectrophotometrically in serum collected from mice using the same method as in Examples 7-8 of WO2023-085787 A1. […] The amount of each factor after aging was calculated as 100% and compared with the amount of each factor after treatment with the test compound.

[2] = test system: obesity-induced aged C57BL6J mice; experiment: Diabetes and complications (HbA1c, wound size, VEGF mRNA) in obesity-aged mice, Example 23-6, Table 46; format: in vivo, mouse; details: for VEGF mRNA: eye, qRT-PCR, amount after aging calculated as 100%; for diabetic foot ulcer size: full-thickness 5 mm×5 mm wound, untreated 4.2 (±0.4); for diabetic foot ulcer size / HbA1c: obesity-induced diabetes mice; for HbA1c: serum, daily for 21 days, untreated 6.9 (±1.5)
Experimental: 15-week-old male C57BL6J mice (The Jackson Laboratory) were induced to obesity by a high-fat diet using the same method as in Example 9-1 WO2023-085787 A1. After acclimation to the experimental environment for one week, the mice were randomly assigned to experimental and control groups. […] LX-3002 was mixed in distilled water with 4% DMSO, 30% PEG300, and 5% Tween80 and administered orally at a concentration of 10 mg/kg daily for 21 days. LX-5701 was mixed in PBS and administered orally at a concentration of 360 mg/kg daily for 21 days. LX-6807 was mixed in saline and administered intraperitoneally at a concentration of 1 mg/kg daily for 21 days. The control group received only the solution in the same volume. After the end of drug administration, the methods described in each example below were performed.
Serum collected from mice using the same method as in Example 7-5 of WO2023-085787 A1 was used to measure glycated hemoglobin (HbA1c), a marker of hyperglycemia and diabetes. Furthermore, the improvement in diabetic foot ulcers and diabetic retinopathy, major complications of diabetes, was analyzed. Specifically, a diabetic foot ulcer model was created by creating a full-thickness 5 mm×5 mm wound on the left dorsal skin of mice induced with obesity-induced diabetes. The wound size was measured under untreated and treated conditions with the test compound, and the healing effect was analyzed. In addition, the mRNA amount of VEGF, a marker of angiogenesis in retinopathy, was measured from the eye using qRT-PCR as described in Example 7-2 of WO2023-085787 A1. The qRT-PCR results were calculated as 100% for the amount of each factor after aging was induced, and compared with the amount of each factor after treatment with the test compound.

[3] = test system: C57BL6-ApoE−/− mice; experiment: Atherosclerosis in ApoE-/- mice (p16 mRNA, vascular plaque), Example 27, Table 51; format: in vivo, mouse; details: high-fat diet ApoE−/− mice; for p16 mRNA: aortic arch of thoracic aorta, untreated 100%; for Plaque number: thoracic aorta, Oil Red O, untreated 21.4 (±5.7)
Experimental: Fifteen-week-old male C57BL6-ApoE^−/−-mice (SLC) with atherosclerosis induced by a high-fat diet in the same manner as in Example 9-1 of WO2023-085787 A1 were acclimated to the experimental environment for one week and then randomly assigned to experimental and control groups. […] The control group was administered only the solution in the same volume. After the drug administration was terminated, the mice were sacrificed, and RNA was extracted from the aortic arch of the thoracic aorta using the same method as Example 7-2 of WO2023-085787 A1, and qRT-PCR was performed using the synthesized cDNA. In addition, the remaining part of the thoracic aorta was dissected, fixed flat in 4% paraformaldehyde at room temperature for 12 hours, and the vascular plaque was stained with Oil Red O using the same method as Example 23-5. […] The mRNA amount after aging was induced was calculated as 100% and compared with the mRNA amount of p16 after treatment with the test compound.

[4] = test system: SHR/Izm rats; experiment: Geriatric hypertension in SHR/Izm rats (p16 mRNA, blood pressure), Example 30, Table 54; format: in vivo, rat; details: for Blood pressure: tail cuff, untreated 195 (±13.3); for p16 mRNA: thoracic aorta, untreated 100%
Experimental: Ten-week-old male SHR/Izm rats (SLC), a model of essential hypertension, were acclimated to the experimental environment for one week. […] The control group received only the solution in the same volume. After drug administration, the blood pressure of the experimental animals was measured, and RNA was extracted from the thoracic aorta in the same manner as in Example 7-2 of WO2023-085787 A1. The synthesized cDNA was used for qRT-PCR. Blood pressure measurements were performed three times using a blood pressure monitor (IITC) after the animals were allowed to rest for approximately 10 minutes in a measuring holder with a cuff attached to the caudal vein. […] The mRNA levels after aging were calculated as 100% and compared with the mRNA levels of p16 after treatment with the test compound.

Row | Molecule | Agtr1a mRNA [1] | Creatinine [1] | Urea [1] | VEGF mRNA [2] | diabetic foot ulcer size [2] | HbA1c [2] | p16 mRNA [3] | Plaque number [3] | Blood pressure [4] | p16 mRNA [4]
1 | Cc1cccc([C@H](C)c2cnc[nH]2)c1C [LX-6807, Dexmedetomidine] | 43 (±3.0) % | 73 (±2.7) % | 72 (±5.8) % | 68 (±1.6) % | 3.3 (±0.5) mm | 5.4 (±0.5) % | 59 (±4.7) % | 15.3 (±2.4) | 157.8 (±19.3) mmHg | 66 (±5.0) %
2 | Tocofersolan [LX-3001] | 70 (±5.8) % | 85 (±4.4) % | 76 (±2.8) % | 77 (±2.4) % | 3.5 (±0.2) mm | 6.4 (±0.4) % | 78 (±7.2) % | 17.5 (±4.2) | 172.9 (±14.6) mmHg | 71 (±3.6) %
3 | CCCC\C=C/C=C/C=C\CCCCCCCC(=O)O [LX-2707, Punicic acid] | 62 (±3.8) % | 75 (±5.3) % | 80 (±3.3) % | 76 (±4.0) % | 3.4 (±0.3) mm | 6.1 (±0.6) % | 81 (±6.0) % | 19.4 (±3.6) | 160.1 (±23.1) mmHg | 64 (±8.5) %
4 | O=C1C2CCN(CC2)C1CNC(=O)C(F)(F)F (stereo not shown) [LX-5701] | 60 (±10.4) % | 80 (±5.0) % | 75 (±5.9) % | 61 (±10.6) % | 3.0 (±0.9) mm | 5.0 (±1.3) % | 71 (±12.8) % | 12.7 (±4.6) | 159.8 (±15.5) mmHg | 73 (±5.2) %
